Results as given in patent publication US6673625B2, “Saccharide sensing molecules having enhanced fluorescent properties” (The Regents of the University of California, priority 1999, dated 2004).

Experiments:
[1] = Cyclic voltammetry (glassy carbon, Ag/AgCl reference, 0.1 M NBu4ClO4 in acetonitrile); assay type: physicochemical; details: for first oxidation potential (amine) / first reduction potential: vs. Ag/AgCl; for Amine Oxidation Potential E° (D^+/D) / Fluorophore Reduction Potential E° (A/A^−): Ag/AgCl reference
Experimental: Samples for FT IR spectroscopy were prepared as solutions in CHCl3, and only the C═O stretches are reported. Unless otherwise stated, all NMR spectra were recorded at 500 MHz for ^1H and 125 MHz for ^13C at 20-25° C. using CDCl3 as the solvent. Unless stated otherwise, mass spectra were obtained using electrospray ionization (50 V) with a 50/50 methanol/water solvent mixture with ^1% acetic acid added. Cyclic voltammetry was conducted using a glassy carbon working electrode, platinum counter electrode, and Ag/AgCl reference electrode and carried out in a 0.1 M solution of NBu4ClO4 in acetonitrile.
(§1) Summarized Syntheses. As the syntheses are described as a series of analogous compounds with general procedures are given below. Cyclic voltammetry was conducted using a glassy carbon working electrode, platinum counter electrode, and Ag/AgCl reference electrode and carried out in a 0.1 M solution of NBu4ClO4 in acetonitrile. Samples for fluorescence were prepared as 1.00 mM stock solutions in MeOH. A 30.0 μL aliquot of solution was then added to 3.000 mL of the appropriate solvent mixture (a combination of methanol and phosphate buffered saline—PBS). Relative quantum yields were determined by the relative output of equimolar solutions of two compounds using 3ay as a reference. Glucose additions were performed by the addition of a concentrated solution of glucose in PBS to a stirred solution of the fluorescent molecule in methanol/PBS.
(§2) General. All reactions were performed under an atmosphere of N2, followed by work-up in air. Protected boronate esters were stored under vacuum to prevent slow hydrolysis from atmospheric moisture. Unless stated otherwise, all chemicals were purchased from commercial suppliers. Anhydrous solvents from Aldrich were used for all reactions. Starting compounds known in the art such as N-n-butyl-4-chloronaphthalene-1,8-dicarboximide(1ax), 2,2-dimethylpropane-1,3-diyl[o-(bromomethyl) phenyl]boronate, were prepared by literature methods (see e.g. Daffy et al. Chem-Eur J 1998, 4, 1810-1815; de Silva et al., Chem Rev 1997, 97, 1515-1566). Samples for FT IR spectroscopy were prepared as solutions in CHCl3, and only the C═O stretches are reported here. All mass spectra were obtained using electrospray ionization (ESI/MS) with an ionization potential of 50V and a solvent system consisting of 1% acetic acid in 50/50 methanol/water. Cyclic voltammetry was conducted using a glassy carbon working electrode, platinum counter electrode, and Ag/AgCl reference electrode and carried out in a 0.1 M solution of NBu4ClO4 in acetonitrile. Samples for fluorescence measurements were prepared as 1.00 mM stock solutions in MeOH. A 30.0 μL aliquot of solution was then added to 3.000 mL of the appropriate solvent mixture (a combination of methanol and phosphate buffered saline—PBS) giving a final concentration of 10.0 μM for each complex. Changes in pH were carried out by the addition of small volumes of concentrated hydrochloric acid, acetic acid, or sodium hydroxide. Glucose additions were performed by the addition of a concentrated solution of glucose in PBS to a stirred solution of fluorophore in a cuvette. Relative quantum yield measurements were carried out by measuring the relative intensities of equimolar solutions (10.0 μM) of two fluorophores. Compound 3ay was used as the reference.

[2] = Fluorescence pH switching; details: for change in fluorescence: pH changed from 11 to 2
Experimental: Samples for fluorescence were prepared as 1.00 mM stock solutions in MeOH. A 30.0 μL aliquot of solution was then added to 3.000 mL of the appropriate solvent mixture (a combination of methanol and phosphate buffered saline—PBS) giving a final concentration of 10.0 μM for each complex. […] Glucose additions were performed by the addition of a concentrated solution of glucose in PBS to a stirred solution of fluorophore in a cuvette.

[3] = Rehm-Weller estimate of free energy of photoinduced electron transfer (PET); assay type: physicochemical; details: for ΔGPET: Rehm-Weller estimate; for λ00: average of excitation and emission maxima
Text: The search for new fluorescent glucose transducers based on photoelectron transfer (PET) requires, among other things, an understanding of the electrochemistry of any potential donor-acceptor pair. The free energy of PET (ΔGel) can be calculated using the Rehm-Weller equation shown below:
ΔGel(kcal mol^−1)=23.06[E^0(D^+/D)−E^0(A/A^−)]−wp−wr−ΔG00 where E^0(D^+/D) is the oxidation potential of the donor, E^0(A/A^−) is the reduction potential of the acceptor, and ΔG00 is the free energy corresponding to the equilibrium energy E00 (see e.g. Kavarnos, G. J. In Fundamentals of photoinduced electron transfer, VCH Publishers: New York, N.Y., 1993; p Chapter 1 and Rehm and Weller, Ist. J. Chem. 1970, 8, 259). The quantities wp and wr are Coulombic terms for the products and reactants, and ate found to be small in polar solvents. To simplify predictions, we assume wp and wr to be zero, and estimate E00 as the energy corresponding to [λmax(ex)+λmax(em)]/2 for each fluorophore.
ΔGPET=23.06[E^0(Z^oxidation)−E^0(F^reduction)]−ΔE00],
The electrochemical potentials can be measured using the individual molecular groups before assembling the complete molecule.
Electrochemistry. The search for new fluorescent glucose transducers based on PET requires, among other things, an understanding of the electrochemistry of any potential donor-acceptor pair. The free energy of PET (ΔGel) can be calculated using the Rehm-Weller equation shown in eq 1, where E^0(D^+/D) is the oxidation potential of the […]
ΔGe(kcal mol^−1)=23.06[E^0(D^+/D)−E^0(A/A^−)]−wp−wr−ΔG00 (1) donor, E^0(A/A^−) is the reduction potential of the acceptor, and ΔG00 is the free energy corresponding to the equilibrium energy E00. The quantities wp and wr are Coulombic terms for the products and reactants, and are found to be small in polar solvents. In our case, wr=0 since the reactants are neutral. To simplify predictions, we assume wp to be zero and estimate E00 as the energy corresponding to [λmax(ex)+λmax(em)]/2 for each fluorophore. […]
it is possible to estimate the free energy of photoinduced electron transfer (PET) in these systems (see e.g. Kavamos, G. J. Fundamentals of Photoinduced Electron Transfer, VCH: New York, 1993; pp 37-40). E0(D^+/D) and E^0(A/A^−) correspond to the […] of the electron donor (i.e. amine) and electron acceptor (i.e. fluorophore), respectively. The quantity ΔG00, is the equilibrium energy, which we estimate as the energy corresponding to the equilibrium wavelength λ00. As an estimate of λ00, we use the average of the excitation and emission maxima for each fluorophore. Smaller solvent-dependent work terms for the Coulombic interaction between the reactants and products are left out for simplicity. Since the mechanism of fluorescence switching in these systems depends on PET, this gives us a rough estimate of which fluorophores should give the best response to glucose.

[4] = vs. SCE, literature data for parent complexes; cited from earlier work
[5] = Fluorescence spectra and relative quantum yields of naphthalimide boronates; assay type: physicochemical; details: for Emission λmax / Excitation λmax / Relative Quantum Yield: PBS buffer (pH 7.4); for Relative Quantum Yield: equimolar 10.0 μM solutions, 3ay as reference
Text: Sample excitation and emission spectra are shown in FIG. 27 for 3ay and 3cy, along with fluorescence maxima in Table 1. Literature references indicate a higher quantum yield for secondary-amine naphthalimide derivatives than for tertiary amines in otherwise similar compounds. The pragmatic value of this gain was examined, weighing synthetic difficulty against measurable relative quantum yields.
as §1, §2

[6] = Glucose testing of naphthalimide boronates by fluorescence; details: PBS buffer (pH 7.4)
Text: The fluorescence spectra of compounds 3 have been obtained as a function of increasing glucose concentration. […] These values range from 9% to 16% over the four compounds, with the two lower values coming from the two compounds having secondary amino groups. These low values of fractional switching are more than balanced out by the high quantum yields for compounds 3az and 3cz. As a measure of the total signal increase for each system, the product of quantum yield and fractional fluorescence increase are given in Table 1, showing that 3cz is the most promising sensor candidate of the group, as expected.
as §1
as §2, with “A 30.0 μL aliquot of solution was then added to 3.000 mL of the appropriate solvent mixture (a combination of methanol and phosphate buffered saline—PBS) giving a final concentration of 10.0 μM for each complex. Changes in pH were carried out by the addition of small volumes of concentrated hydrochloric acid, acetic acid, or sodium hydroxide. Glucose additions were performed by the addition of a concentrated solution of glucose in PBS to a stirred solution of fluorophore in a cuvette. Relative quantum yield measurements were carried out by measuring the relative intensities of equimolar solutions (10.0 μM) of two fluorophores. Compound 3ay was used as the reference.” left out

In the case of `CCN(CC)Cc1ccnc(-c2cc(C)ccn2)c1.O=S(=O)([O-])C(F)(F)F.[C-]#[O+].[C-]#[O+].[C-]#[O+].[Re+].c1ccncc1` [(bpyCH2NEt2)Re(CO)3(py)](OTf), reference compound], the “first oxidation potential (amine)” value [1] is reported as 1.35 V, the first reduction potential [1] is reported as −1.20 V and the change in fluorescence [2] is reported as 61%.

In the case of `Cc1ccnc(-c2cc(CN(C)Cc3ccccc3)ccn2)c1.O=S(=O)([O-])C(F)(F)F.[C-]#[O+].[C-]#[O+].[C-]#[O+].[Re+].c1ccncc1` [[(bpyN)Re(CO)3(py)](OTf)], the “first oxidation potential (amine)” value [1] is reported as 1.34 V, the first reduction potential [1] is reported as −1.20 V and the signal increase ([2]; drop from pH 7 to pH 2) is reported as 21%. It also gave a change in fluorescence [2] of 930%.

In the case of `[Cl][Ru][Cl].c1ccc(-c2ccccn2)nc1.c1ccc(-c2ccccn2)nc1.c1ccc(-c2ccccn2)nc1` [[Ru(bpy)3]Cl2, reference compound], the “expected ΔGel” value ([3]; from literature reduction potentials of parent complexes) is listed as 12.5 kcal/mol and the reduction potential [4] is listed as −1.31 V.

With “N-(5′-Tetrahydropyranoxypentyl)-4-(N′-aminoethylene-N″-ArBmethylamino)naphthalene-1,8-dicarboximide [Compound 3cz]” the ΔGPET [3] was -1.2 kcal/mol, the λ00 [3] was 480 nm and the “Amine Oxidation Potential E° (D^+/D)” value [1] was 1.00 V. For the same compound, the “Fluorophore Reduction Potential E° (A/A^−)” value [1] was −1.53 V, the “change in quantum yield or wavelength maximum on removal of the THP protecting group” value [5] was “no significant change” and the “Emission λmax” value [5] was 525 nm. For the same compound, the “Excitation λmax” value [5] was 435 nm, the “Relative Quantum Yield” value [5] was 51.2 and the “Fluorescence Intensity Increase with added glucose (0 to 600 mg dL^−1)” value (shortened to “Fluorescence Intensity Increase”) [6] was 10%.

With “N-(5′-Tetrahydropyranoxypentyl)-4-(N′-methylaminoethylene-N″-ArBmethylamino)naphthalene-1,8-dicarboximide [Compound 3cy]” the ΔGPET [3] was -5.5 kcal/mol, the λ00 [3] was 470 nm and the “Amine Oxidation Potential E° (D^+/D)” value [1] was 0.93 V. The “Fluorophore Reduction Potential E° (A/A^−)” value [1] was −1.47 V, the “Emission λmax” value [5] was 525 nm and the “Excitation λmax” value [5] was 415 nm. For the same compound, the “Relative Quantum Yield” value [5] was 1.32 and the “Fluorescence Intensity Increase” value [6] was 13%.

For “N-n-Butyl-4-(N′-aminoethylene-N″-ArBmethylamino)naphthalene-1,8-dicarboximide [Compound 3az]”, the ΔGPET [3] was -0.62 kcal/mol, the λ00 [3] was 485 nm and the “Amine Oxidation Potential E° (D^+/D)” value [1] was 1.05 V. The “Fluorophore Reduction Potential E° (A/A^−)” value [1] was −1.48 V, the “Emission λmax” value [5] was 535 nm and the “Excitation λmax” value [5] was 435 nm. The “Relative Quantum Yield” value [5] was 44.2 and the “Fluorescence Intensity Increase” value [6] was 9%.

In the case of “N-n-Butyl-4-(N′-methylaminoethylene-N″-ArBmethylamino)naphthalene-1,8-dicarboximide [Compound 3ay]”, the ΔGPET [3] is reported as -4.8 kcal/mol, the λ00 [3] is reported as 478 nm and the “Amine Oxidation Potential E° (D^+/D)” value [1] is reported as 0.91 V. For the same compound, the “Fluorophore Reduction Potential E° (A/A^−)” value [1] was −1.48 V, the “Emission λmax” value [5] was 535 nm and the “Excitation λmax” value [5] was 420 nm. The “Relative Quantum Yield” value [5] was 1 and the “Fluorescence Intensity Increase” value [6] was 16%.
